Results reported in patent US12691101B2, “Compound and method for preventing or treating of respiratory diseases comprising the same as an active ingredient” (YONSEI UNIVERSITY, UNIVERSITY - INDUSTRY FOUNDATION (UIF), priority 2019, dated 2026).

How the values were obtained:
NF-κ = test: IVIS lung fluorescence in LPS-treated NF-κ reporter/SPC-Cre-ERT2 mice; format: in vivo, mouse; details: 10 mg/kg i.p., 6 hours after LPS
Excerpt: From Orient Bio (Sungnam, Republic of Korea), 8-10-week-old wild-type male C57BL/6J mice having a body weight of 20-24 g were purchased. Food and water were provided to all the animals, and the similar optical cycle of day and night was applied. Transfected NF-κ reporter/SPC-Cre-ERT2 mice were used for IVIS in the present invention. Briefly, NF-κ reporter mice contain ROSA26 lox-STOP-lox-cassette inserted between a promoter and NF-κ gene. In general, a stop gene is positioned between loxP and loxP, and NF-κ is not expressed. NF-κ reporter/SPC-Cre-ERT2 mice were obtained by raising ROSA26R mice to surfactant protein C(SPC)-Cre-ERT2 mice. The Cre-ERT2 recombinase activity in these transfected mice was induced by tamoxifen. These NF-κ reporter/SPC-Cre-ERT2 mice express NF-κ activity in the alveolar epithelium by one of dTomato fluorescence or luciferase in presence of tamoxifen. […]
Imaging of living animals and organs was performed using IVIS […] imaging system Caliper Life Sciences, Preston Brook Runcorn, UK). […] Fluorescence excite light was provided by a halogen lamp combined with an appropriate excite filter. […] The fluorescence imaging was obtained with an excitation wavelength of 554 nm and an emission wavelength of 581 nm (dTomato). […] In Living Image software (version 3.2, Caliper Life Sciences), using an area of interest tool, fluorescence was quantified.

HNE cells = test: IL-4 and IL-13-induced goblet cell hyperplasia in HNE cells, PAS staining; format: cell-based, human; details: pretreatment
Experimental: (A) The MUC5AC mRNA expression level was determined at the indicated time after treatment of F56 ([…]) in IL-4 (10 ng/ml)-treated HNE cells (mean±S.E., n=4). (B) Periodic acid-Schiff (PAS) staining showing goblet cell hyperplasia of IL-4 and IL-13 (10 ng/ml)-treated HNE cells in presence or absence of F56 ([…]) at Day 7. (C) Measurement of the total volume of ASL and fluid meniscus in HNE cells expressing wild-type (wt) or mutant (mt) PDS. The HNE cells were treated with IL-4 (10 ng/ml, 48 hours) in presence or absence of […]. (D) Representative image of a transwell insert having normal HNE cells. Arrows indicate the fluid meniscus of HNE cells treated with IL-4 (10 ng/ml, 48 hours) in presence or absence of […] F56. (E) Representative protein expression result of pendrin in IL-4 and IL-13-treated HNE cells. (F) Measurement of the total volume of ASL and fluid meniscus. The HNE cells were treated with IL-13 (10 ng/ml, 48 hours) in presence or absence of 30 mM F56 (mean±S.E., n=3-4). * P<0.05, *** P<0.001. Size bar, 30 μm.
For evaluation of airway inflammation, left lung was fixed in 4% paraformaldehyde overnight and embedded in paraffin. […] The inflammation score showing the severity of bronchial inflammation was evaluated by 3 blind observers using a method reported conventionally. […]

## CC(C)(C)c1ccc(C2=NC(=Cc3cccs3)C(=O)O2)cc1 [F56, 2-(4-(tert-butyl)phenyl)-4-(thiophen-2-ylmethylene)oxazol-5(4H)-one]
NF-κ
  fluorescence of the excised lung (NF-κ activation): inhibited
HNE cells
  IL-4 and IL-13-induced goblet cell hyperplasia: significantly reduced
